Measurements published in patent US7018796B2, “Preincubation assay methods” (Shionogi & Co., Ltd., priority 2000, dated 2006).

Molecular target: T1, HCV RNA-dependent RNA polymerase (Hepatitis C virus genotype 1a, UniProt P27958)
T1 construct: HCV RNA-dependent RNA polymerase is encoded in the NS5B (nonstructural protein 5B) region of HCV; made in house; host or cells: insect cells or E. coli
Experiment: DIG-UTP assay without radioisotope-labeled substrate, with pre-incubation (Example 2)
Type: biochemical
Conditions: pre-incubation 25° C. 1 hr, I-1 0.5 μg/ml, 3′-dUTP 0.7 μM, A 100 μg/ml, B 50 μg/ml, C 25 μg/ml
Description: In Example 1, ^3H-UTP, that is UTP labeled with tritium as radioisotope was used as substrate in the assay with pre-incubation using HCV RNA-dependent RNA polymerase. Herein, digoxigenin-labeled UTP (DIG-UTP) instead of ^3H-UTP was used as substrate in the assay with pre-incubation using HCV RNA-dependent RNA polymerase. • 1) Streptavidin (1 mg/ml) was dissolved in the phosphate buffer saline (PBS) containing NaCl (0.137 M), KCl (2.68 mM), potassium dihydrogenphosphate (1.47 mM) and sodium phosphate (8.06 mM). • 2) The streptavidin solution was diluted 25-fold with the carbonate buffer containing sodium carbonate (0.9 M) and sodium hydrogencarbonate (0.1 M). • 3) The 25-fold streptavidin solution (50 μl/well) was transferred to a well of 96 wells-microtiter palate with flat bottom for immunoassay and then the plate was kept at 4° C. over night. • 4) After the 96 wells-microtiter plate was coated with streptavidin, the well was washed twice by adding, mixing and draining PBS (200 μl/well). • 5) The skim milk dissolved with PBS (1%, 300 μl) was transferred into each well and was kept at room temperature for 30 min. • 6) After the plate was washed once with PBS (200 μl/well), the well was filled with PBS (300 μl/well) and then the plate was stored at 4° C. • 7) After the PBS was drained from the streptavidin-coated plate stored under the condition described in 6), the well was washed once with PBS (200 μl/well) and was filled with de-ionized water (300 μl/well). • 8) The buffer I (10 μl) containing Tris-HCl (100 mM, pH 7.5), MgCl2 (25 mM), dithiothreitol (5 mM), KCl (125 mM) and ethylenediaminetetraacetic acid (5 mM) was transferred to a polypropylene tube and then poly(A) solution (6.25 μg/ml, 10 μl), biotin-labeled oligo(U)12 solution (3 μg/ml, 10 μl), water (10 μl) and HCV RNA-dependent RNA polymerase solution (10 μl) were added into the tube and mixed calmly. • 9) De-ionized water was drained from the plate described in 7), and the solution (50 μl/well) at once after the mixing described in 8) was transferred to each well. After mixing by a plate mixer, the solution was pre-incubated at 25° C. for 1 hr. • 10) On the other hand, the buffer I (10 μl) was transferred into another tube, and UTP (1 μM, 10 μl), DIG-UTP (300 μM, 1 μl), water (24 μl) and a test compound dissolved with dimethyl sulfoxide or water (5 μl) were added to the tube and mixed calmly. Concentrations of the compounds used were as follows.
• 11) The mixed solution (50 μl/well) described in 10) was transferred into each well after the pre-incubation described in 9), mixed by a plate mixer and then incubated at 25° C. for 1 hr. • 12) When the enzyme reaction was in 1 hr, the enzyme reaction was stopped by adding ethylenediaminetetraacetic acid (0.1 M, 50 μl/well). • 13) The plate was washed twice with PBS (200 μl/well) after end of the enzyme reaction. • 14) Next, alkaline phosphatase-labeled anti-DIG antibody (3 U/ml, 100 μl/well) diluted 250-fold with PBS containing skim milk (0.5%) was transferred each well. […] The substrate solution was transferred into each well of the plate, mixed by a plate mixer and then incubated at 25° C. for 1 hr until the color appears in the solution. • 17) The plate was set on a plate reader and the absorbance was measured at 405 nm. • 18) The inhibitory rate was calculated from the optical density (unit; OD) measured as follows. […]

T1 sequence (P27958 2421-3011): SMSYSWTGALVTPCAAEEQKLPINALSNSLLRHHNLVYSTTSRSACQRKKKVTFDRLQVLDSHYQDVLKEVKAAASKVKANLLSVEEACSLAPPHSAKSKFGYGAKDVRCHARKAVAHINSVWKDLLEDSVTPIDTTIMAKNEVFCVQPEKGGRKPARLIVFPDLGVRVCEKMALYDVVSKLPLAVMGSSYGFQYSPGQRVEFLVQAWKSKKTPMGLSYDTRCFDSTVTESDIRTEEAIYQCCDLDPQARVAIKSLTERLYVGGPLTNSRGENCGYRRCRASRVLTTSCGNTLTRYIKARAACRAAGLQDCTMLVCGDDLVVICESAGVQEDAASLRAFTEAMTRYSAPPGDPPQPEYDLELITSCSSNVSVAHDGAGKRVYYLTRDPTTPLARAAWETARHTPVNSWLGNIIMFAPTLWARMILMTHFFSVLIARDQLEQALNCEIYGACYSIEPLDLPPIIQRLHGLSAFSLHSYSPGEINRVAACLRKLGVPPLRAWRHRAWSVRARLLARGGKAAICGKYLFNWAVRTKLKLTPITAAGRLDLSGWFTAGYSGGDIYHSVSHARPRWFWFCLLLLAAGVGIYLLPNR

| SMILES | Inhibitory rate, treatment of pre-incubation + [%] | inhibition at 0.5 µg/mL (read-out: Inhibitory rate, treatment of pre-incubation +) [%] |
| --- | --- | --- |
| O=c1ccn([C@@H]2O[C@H](COP(=O)(O)OP(=O)(O)OP(=O)(O)O)C[C@H]2O)c(=O)[nH]1 [3′-dUTP, 3′-deoxyuridine triphosphate] | 50 |  |
| Cc1oc(-c2ccccc2)nc1CCOc1ccc(C=C2C(=O)NC(=O)NC2=O)cc1 [Compound A] | 24 |  |
| O=C1NC(=O)C(=Cc2ccc(OCCc3cccc4ccccc34)cc2)C(=O)N1 [Compound B] | 20 |  |
| CCCCC1=N/C(=C\c2ccccc2OCC(=O)O)C(=O)N1Cc1ccc(-c2ccccc2-c2nnn[nH]2)cc1 [Compound C] | 15 |  |
| O=C(O)/C(O)=C/C(=O)c1cccc(O)c1 [Compound I-1] |  | 52 |
